Test results taken from US20240327364A1, “THERAPEUTIC TARGETING OF GPR68 TO INDUCE FERROPTOSIS” (University Of Maryland, Baltimore, priority 2023, published 2024).

Experiments:
MLK1 = target: T1, MLK1 (Homo sapiens, UniProt P80192); assay: KinomeScan; assay type: binding; settings: read-out: % Control
T1 construct: purchased DiscoveRx

MYLK2 = target: T2, MYLK2 (Homo sapiens, UniProt Q9H1R3); assay: KinomeScan; assay type: binding; settings: read-out: % Control
T2 construct: purchased DiscoveRx

[1] = target: T3, EGFR(L747-S752del, P753S) (Homo sapiens, UniProt P00533, DEL747-752/P753S); assay: KinomeScan; assay type: binding; settings: read-out: % Control
T3 construct: purchased DiscoveRx (Fremont, CA), KinomeScan service

IRAK1 = target: T4, IRAK1 (Homo sapiens, UniProt P51617); assay: KinomeScan; assay type: binding; settings: read-out: % Control
T4 construct: purchased DiscoveRx (Fremont, CA)

CSNK1G2 = CSNK1G2 (Homo sapiens, UniProt P78368); assay: KinomeScan; assay type: binding; settings: read-out: % Control
sst5 = target: T5, sst5 (Homo sapiens, UniProt P35346); assay: GPCR Profiler; assay type: cell-based
T5 construct: host or cells: Chem-1 cells with Gα15

NOP = target: T6, NOP (Homo sapiens, UniProt P41146); assay: GPCR Profiler; assay type: cell-based
T6 construct: host or cells: Chem-1 cells expressing Gα15

MELK = target: T7, MELK (Homo sapiens, UniProt Q14680); assay: KinomeScan; assay type: binding; settings: read-out: % Control
T7 construct: purchased DiscoveRx (Fremont, CA)

PAK6 = target: T8, PAK6 (Homo sapiens, UniProt Q9NQU5); assay: KinomeScan; assay type: binding; settings: read-out: % Control
T8 construct: purchased DiscoveRx

ROCK2 = target: T9, ROCK2 (Homo sapiens, UniProt O75116); assay: KinomeScan; assay type: binding; settings: read-out: % Control
T9 construct: purchased DiscoveRx (Fremont, CA)

TNNI3K = target: T10, TNNI3K (Homo sapiens, UniProt Q59H18); assay: KinomeScan; assay type: binding; settings: read-out: % Control
T10 construct: purchased DiscoveRx (Fremont, CA)

EGFR(L747-T751del, Sins) = target: T11, EGFR(L747-T751del, Sins) (Homo sapiens, UniProt P00533, DEL747-750/T751S); assay: KinomeScan; assay type: binding; settings: read-out: % Control
T11 construct: purchased DiscoveRx (Fremont, CA), KinomeScan service

CAMK2B = target: T12, CAMK2B (Homo sapiens, UniProt Q13554); assay: KinomeScan; assay type: binding; settings: read-out: % Control
T12 construct: purchased DiscoveRx (KinomeScan service)

RET(V804L) = target: T13, RET(V804L) (Homo sapiens, UniProt P07949, V804L); assay: KinomeScan; assay type: binding; settings: read-out: % Control
T13 construct: purchased DiscoveRx (Fremont, CA)

BDKR2 = target: T14, BDKR2 (Homo sapiens, UniProt P30411); assay: GPCR Profiler; assay type: cell-based
T14 construct: host or cells: Chem-1 cells with promiscuous Gα15

TSH = target: T15, TSH (Homo sapiens, UniProt P16473); assay: GPCR Profiler; assay type: cell-based
T15 construct: host or cells: Chem-1 cells with Gα15

LIMK2 = target: T16, LIMK2 (Homo sapiens, UniProt P53671); assay: KinomeScan; assay type: binding; settings: read-out: % Control
T16 construct: purchased DiscoveRx

p38-gamma = target: T17, p38-gamma (Homo sapiens, UniProt P53778); assay: KinomeScan; assay type: binding; settings: read-out: % Control
T17 construct: purchased DiscoveRx

HIPK2 = target: T18, HIPK2 (Homo sapiens, UniProt Q9H2X6); assay: KinomeScan; assay type: binding; settings: read-out: % Control
T18 construct: purchased DiscoveRx (Fremont, CA)

MST3 = target: T19, MST3 (Homo sapiens, UniProt Q9Y6E0); assay: KinomeScan; assay type: binding; settings: read-out: % Control
T19 construct: purchased DiscoveRx

TNIK = target: T20, TNIK (Homo sapiens, UniProt Q9UKE5); assay: KinomeScan; assay type: binding; settings: read-out: % Control
T20 construct: purchased DiscoveRx (Fremont, CA)

PFTAIRE2 = target: T21, PFTAIRE2 (Homo sapiens, UniProt Q96Q40); assay: KinomeScan; assay type: binding; settings: read-out: % Control
T21 construct: purchased DiscoveRx (Fremont, CA)

FGR = target: T22, FGR (Homo sapiens, UniProt P09769); assay: KinomeScan; assay type: binding; settings: read-out: % Control
T22 construct: purchased DiscoveRx (Fremont, CA)

NEK6 = target: T23, NEK6 (Homo sapiens, UniProt Q9HC98); assay: KinomeScan; assay type: binding; settings: read-out: % Control
T23 construct: purchased DiscoveRx

Y2 = target: T24, Y2 (Homo sapiens, UniProt P49146); assay: GPCR Profiler; assay type: cell-based
T24 construct: host or cells: Chem-1 cells expressing Galpha15

PRKX = target: T25, PRKX (Homo sapiens, UniProt P51817); assay: KinomeScan; assay type: binding; settings: read-out: % Control
T25 construct: purchased DiscoveRx (Fremont, CA)

CLK2 = CLK2 (Homo sapiens, UniProt P49760); assay: KinomeScan; assay type: binding; settings: read-out: % Control
PCTK2 = target: T26, PCTK2 (Homo sapiens, UniProt Q00537); assay: KinomeScan; assay type: binding; settings: read-out: % Control
T26 construct: purchased DiscoveRx

GnRH = target: T27, GnRH (Homo sapiens, UniProt P30968); assay: GPCR Profiler; assay type: cell-based
T27 construct: host or cells: Chem-1 cells expressing Gα15

DLK = target: T28, DLK (Homo sapiens, UniProt Q12852); assay: KinomeScan; assay type: binding; settings: read-out: % Control
T28 construct: purchased DiscoveRx (Fremont, CA), KinomeScan service

A1 = target: T29, A1 (Homo sapiens, UniProt P30542); assay: GPCR Profiler; assay type: cell-based
T29 construct: host or cells: Chem-1 cells with promiscuous Gα15

[2] = target: T30, ABL1(E255K)-phosphorylated (Homo sapiens, UniProt P00519, E255K); assay: KinomeScan; assay type: binding; settings: read-out: % Control
T30 construct: purchased DiscoveRx

YSK4 = target: T31, YSK4 (Homo sapiens, UniProt Q56UN5); assay: KinomeScan; assay type: binding; settings: read-out: % Control
T31 construct: purchased DiscoveRx

EPHB1 = target: T32, EPHB1 (Homo sapiens, UniProt P54762); assay: KinomeScan; assay type: binding; settings: read-out: % Control
T32 construct: purchased DiscoveRx (Fremont, CA)

DCAMKL3 = target: T33, DCAMKL3 (Homo sapiens, UniProt Q9C098); assay: KinomeScan; assay type: binding; settings: read-out: % Control
T33 construct: purchased DiscoveRx (Fremont, CA), KinomeScan service

YES = target: T34, YES (Homo sapiens, UniProt P07947); assay: KinomeScan; assay type: binding; settings: read-out: % Control
T34 construct: purchased DiscoveRx

FP = target: T35, FP (Homo sapiens, UniProt P43088); assay: GPCR Profiler; assay type: cell-based
T35 construct: host or cells: Chem-1 cells expressing Gα15
T35 sequence (P43088 whole entry): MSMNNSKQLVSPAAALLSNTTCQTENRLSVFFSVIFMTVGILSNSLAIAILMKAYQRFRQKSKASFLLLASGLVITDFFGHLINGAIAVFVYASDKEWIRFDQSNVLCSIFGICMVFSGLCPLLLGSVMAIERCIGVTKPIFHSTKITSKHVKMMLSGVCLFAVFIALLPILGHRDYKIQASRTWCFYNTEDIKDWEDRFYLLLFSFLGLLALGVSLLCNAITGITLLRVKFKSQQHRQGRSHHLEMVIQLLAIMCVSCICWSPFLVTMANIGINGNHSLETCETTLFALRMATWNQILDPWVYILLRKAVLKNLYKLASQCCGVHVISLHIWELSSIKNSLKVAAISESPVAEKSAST

T14 sequence (P30411 whole entry): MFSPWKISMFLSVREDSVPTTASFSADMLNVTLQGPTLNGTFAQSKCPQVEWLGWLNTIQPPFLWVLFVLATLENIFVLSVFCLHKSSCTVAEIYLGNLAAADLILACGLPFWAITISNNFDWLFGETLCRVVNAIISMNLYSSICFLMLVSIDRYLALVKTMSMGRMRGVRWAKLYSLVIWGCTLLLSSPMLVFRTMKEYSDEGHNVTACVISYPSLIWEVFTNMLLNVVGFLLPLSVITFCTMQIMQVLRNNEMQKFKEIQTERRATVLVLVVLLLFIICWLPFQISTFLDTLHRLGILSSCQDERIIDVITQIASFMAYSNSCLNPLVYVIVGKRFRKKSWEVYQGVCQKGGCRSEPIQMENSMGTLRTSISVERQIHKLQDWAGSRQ
T5 sequence (P35346 whole entry, species assumed): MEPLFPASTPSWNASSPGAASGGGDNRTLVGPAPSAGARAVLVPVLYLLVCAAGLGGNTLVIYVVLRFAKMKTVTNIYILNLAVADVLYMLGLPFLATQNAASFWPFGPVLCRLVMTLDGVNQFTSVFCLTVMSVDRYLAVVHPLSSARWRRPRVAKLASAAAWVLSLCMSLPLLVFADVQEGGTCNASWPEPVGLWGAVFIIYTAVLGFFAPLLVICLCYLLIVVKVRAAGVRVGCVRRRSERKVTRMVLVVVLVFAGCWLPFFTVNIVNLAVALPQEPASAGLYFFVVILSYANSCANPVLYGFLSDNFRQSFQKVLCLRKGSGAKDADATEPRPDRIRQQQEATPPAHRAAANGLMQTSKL
T29 sequence (P30542 whole entry): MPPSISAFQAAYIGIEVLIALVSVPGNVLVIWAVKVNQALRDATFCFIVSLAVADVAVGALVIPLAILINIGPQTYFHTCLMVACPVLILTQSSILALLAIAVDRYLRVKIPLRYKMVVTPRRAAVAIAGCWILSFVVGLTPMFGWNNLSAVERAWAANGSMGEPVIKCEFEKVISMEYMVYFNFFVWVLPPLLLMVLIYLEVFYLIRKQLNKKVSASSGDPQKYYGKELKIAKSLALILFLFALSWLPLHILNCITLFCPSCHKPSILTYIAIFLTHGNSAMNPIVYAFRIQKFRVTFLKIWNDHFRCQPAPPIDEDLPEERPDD
T27 sequence (P30968 whole entry): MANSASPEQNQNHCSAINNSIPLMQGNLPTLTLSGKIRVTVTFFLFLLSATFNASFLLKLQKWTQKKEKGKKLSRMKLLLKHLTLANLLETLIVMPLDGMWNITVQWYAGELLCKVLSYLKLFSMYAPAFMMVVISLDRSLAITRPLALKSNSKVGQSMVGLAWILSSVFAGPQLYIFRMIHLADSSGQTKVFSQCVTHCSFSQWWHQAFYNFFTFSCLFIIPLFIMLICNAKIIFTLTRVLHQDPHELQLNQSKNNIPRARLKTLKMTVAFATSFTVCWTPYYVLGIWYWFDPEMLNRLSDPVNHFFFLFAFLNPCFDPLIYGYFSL
T6 sequence (P41146 whole entry): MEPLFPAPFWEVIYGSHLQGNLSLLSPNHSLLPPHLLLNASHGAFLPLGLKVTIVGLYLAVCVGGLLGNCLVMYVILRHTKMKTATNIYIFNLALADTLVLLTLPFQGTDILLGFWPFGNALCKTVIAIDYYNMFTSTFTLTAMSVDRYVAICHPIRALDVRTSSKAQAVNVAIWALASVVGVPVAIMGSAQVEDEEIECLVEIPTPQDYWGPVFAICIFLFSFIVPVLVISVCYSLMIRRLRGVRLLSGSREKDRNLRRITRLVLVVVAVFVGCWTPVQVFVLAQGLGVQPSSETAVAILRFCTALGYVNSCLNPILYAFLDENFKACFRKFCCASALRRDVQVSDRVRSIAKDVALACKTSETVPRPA
T24 sequence (P49146 whole entry): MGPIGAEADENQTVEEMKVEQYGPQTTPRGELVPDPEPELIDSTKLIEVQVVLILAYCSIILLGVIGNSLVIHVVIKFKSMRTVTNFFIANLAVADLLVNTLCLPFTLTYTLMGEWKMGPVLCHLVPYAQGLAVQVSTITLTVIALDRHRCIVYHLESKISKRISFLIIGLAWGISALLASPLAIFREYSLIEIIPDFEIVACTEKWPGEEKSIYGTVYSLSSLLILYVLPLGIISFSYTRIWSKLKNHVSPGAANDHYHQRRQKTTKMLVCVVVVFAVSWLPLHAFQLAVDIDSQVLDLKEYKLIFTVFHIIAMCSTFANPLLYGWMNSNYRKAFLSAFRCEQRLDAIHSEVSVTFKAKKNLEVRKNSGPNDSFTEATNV
T15 sequence (P16473 21-764): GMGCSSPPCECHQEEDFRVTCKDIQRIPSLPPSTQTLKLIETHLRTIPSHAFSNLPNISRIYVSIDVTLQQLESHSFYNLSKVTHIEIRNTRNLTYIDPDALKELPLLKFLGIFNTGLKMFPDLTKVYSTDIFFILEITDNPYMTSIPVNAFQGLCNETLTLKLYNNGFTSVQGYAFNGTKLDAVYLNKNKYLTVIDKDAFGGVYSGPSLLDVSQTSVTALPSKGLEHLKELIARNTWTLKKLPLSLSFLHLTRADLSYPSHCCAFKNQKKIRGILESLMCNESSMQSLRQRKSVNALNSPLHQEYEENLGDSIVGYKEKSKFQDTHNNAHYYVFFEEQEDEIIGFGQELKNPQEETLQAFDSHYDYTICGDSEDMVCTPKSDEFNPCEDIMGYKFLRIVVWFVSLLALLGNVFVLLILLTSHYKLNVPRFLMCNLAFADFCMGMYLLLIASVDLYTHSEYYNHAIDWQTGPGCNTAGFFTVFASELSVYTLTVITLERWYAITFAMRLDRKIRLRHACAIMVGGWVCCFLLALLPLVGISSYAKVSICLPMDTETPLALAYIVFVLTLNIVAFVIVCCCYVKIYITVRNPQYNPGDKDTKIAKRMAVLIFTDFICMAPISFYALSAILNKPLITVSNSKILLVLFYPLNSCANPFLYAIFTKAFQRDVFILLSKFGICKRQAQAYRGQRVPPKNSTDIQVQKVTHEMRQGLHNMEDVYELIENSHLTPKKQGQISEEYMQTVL
T32 sequence (P54762 18-984): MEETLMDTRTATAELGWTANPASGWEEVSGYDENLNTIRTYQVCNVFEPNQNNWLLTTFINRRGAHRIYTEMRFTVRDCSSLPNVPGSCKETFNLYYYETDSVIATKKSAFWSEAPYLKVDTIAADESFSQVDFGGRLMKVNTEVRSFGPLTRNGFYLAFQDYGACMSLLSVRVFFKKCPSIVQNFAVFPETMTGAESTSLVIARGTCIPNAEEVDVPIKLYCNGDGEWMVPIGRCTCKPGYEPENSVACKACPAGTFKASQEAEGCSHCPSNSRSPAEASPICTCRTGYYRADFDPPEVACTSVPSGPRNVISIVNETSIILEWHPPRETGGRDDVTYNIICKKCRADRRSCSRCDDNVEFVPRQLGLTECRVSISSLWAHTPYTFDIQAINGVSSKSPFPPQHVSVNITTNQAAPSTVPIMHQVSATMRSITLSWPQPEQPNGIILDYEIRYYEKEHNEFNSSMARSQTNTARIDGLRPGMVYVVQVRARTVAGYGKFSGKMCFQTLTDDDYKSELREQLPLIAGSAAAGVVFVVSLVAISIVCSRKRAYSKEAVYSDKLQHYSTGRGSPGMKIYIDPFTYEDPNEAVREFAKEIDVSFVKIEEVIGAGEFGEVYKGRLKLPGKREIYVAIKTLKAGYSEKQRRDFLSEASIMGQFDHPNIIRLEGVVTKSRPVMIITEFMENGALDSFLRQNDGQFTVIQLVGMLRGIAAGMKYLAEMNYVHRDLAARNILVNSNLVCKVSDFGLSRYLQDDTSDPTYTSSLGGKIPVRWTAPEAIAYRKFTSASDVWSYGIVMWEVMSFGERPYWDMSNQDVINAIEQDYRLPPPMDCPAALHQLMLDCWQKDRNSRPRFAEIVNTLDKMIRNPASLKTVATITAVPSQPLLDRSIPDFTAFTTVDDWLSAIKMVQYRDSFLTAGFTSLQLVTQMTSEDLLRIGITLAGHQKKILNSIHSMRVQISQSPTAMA
T19 sequence (Q9Y6E0 whole entry): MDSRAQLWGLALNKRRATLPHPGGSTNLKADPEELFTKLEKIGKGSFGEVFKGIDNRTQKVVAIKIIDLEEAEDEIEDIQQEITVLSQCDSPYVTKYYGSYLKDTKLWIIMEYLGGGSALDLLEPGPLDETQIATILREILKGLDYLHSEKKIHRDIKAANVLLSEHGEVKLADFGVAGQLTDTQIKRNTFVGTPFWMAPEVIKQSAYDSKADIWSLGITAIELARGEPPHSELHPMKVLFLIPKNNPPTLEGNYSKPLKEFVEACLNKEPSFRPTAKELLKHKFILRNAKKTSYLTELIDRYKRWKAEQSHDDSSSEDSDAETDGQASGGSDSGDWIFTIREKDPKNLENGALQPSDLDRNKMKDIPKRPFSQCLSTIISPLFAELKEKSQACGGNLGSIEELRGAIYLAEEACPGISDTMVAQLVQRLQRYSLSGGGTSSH
T30 sequence (P00519 242-493 E255K limits assumed): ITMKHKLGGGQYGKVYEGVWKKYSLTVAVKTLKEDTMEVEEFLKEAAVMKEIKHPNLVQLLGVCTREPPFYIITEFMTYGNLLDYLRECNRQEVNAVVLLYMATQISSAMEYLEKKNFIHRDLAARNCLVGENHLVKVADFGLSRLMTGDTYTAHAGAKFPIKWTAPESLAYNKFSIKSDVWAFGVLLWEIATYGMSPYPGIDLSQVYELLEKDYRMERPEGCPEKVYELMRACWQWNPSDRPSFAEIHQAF

**Q.** For `CCc1ccc2c(c1)C1(NN=C(c3cccc4ccccc34)S1)C(=O)N2` (stereo not drawn) [OGM1, 5-ethyl-5′-naphthalen-1-ylspiro[1H-indole-3,2′-3H-1,3,4-thiadiazole]-2-one], which remaining binding at 10 µM (MLK1) is on record?
**A.** 100%

**Q.** And the remaining binding at 10 µM (MYLK2)?
**A.** 100%

**Q.** What about the remaining binding at 10 µM [1] of the same molecule?
**A.** 99%

**Q.** And the remaining binding at 10 µM (IRAK1)?
**A.** 100%

**Q.** What about the remaining binding at 10 µM (CSNK1G2) of the same molecule?
**A.** 100%

**Q.** And the Antagonism (sst5; 10 uM)?
**A.** −4

**Q.** What about the Agonism (sst5; 12.5 uM) of the same molecule?
**A.** −0.3

**Q.** What about the Antagonism (NOP; 10 uM) of the same molecule?
**A.** −1.9

**Q.** What about the Agonism (NOP; 12.5 uM) of the same molecule?
**A.** 0.2

**Q.** What about the remaining binding at 10 µM (MELK) of the same molecule?
**A.** 100%

**Q.** And the remaining binding at 10 µM (PAK6)?
**A.** 89%

**Q.** What about the remaining binding at 10 µM (ROCK2) of the same molecule?
**A.** 73%

**Q.** What about the remaining binding at 10 µM (TNNI3K) of the same molecule?
**A.** 100%

**Q.** What about the remaining binding at 10 µM (EGFR(L747-T751del, Sins)) of the same molecule?
**A.** 100%

**Q.** What about the remaining binding at 10 µM (CAMK2B) of the same molecule?
**A.** 60%

**Q.** And the remaining binding at 10 µM (RET(V804L))?
**A.** 90%

**Q.** And the Antagonism (BDKR2; 10 uM)?
**A.** 3.4

**Q.** What about the Agonism (BDKR2; 12.5 uM) of the same molecule?
**A.** −2.4

**Q.** And the Antagonism (TSH; 10 uM)?
**A.** 5.9

**Q.** What about the Agonism (TSH; 12.5 uM) of the same molecule?
**A.** −0.1

**Q.** And the remaining binding at 10 µM (LIMK2)?
**A.** 100%

**Q.** What about the remaining binding at 10 µM (p38-gamma) of the same molecule?
**A.** 94%

**Q.** And the remaining binding at 10 µM (HIPK2)?
**A.** 100%

**Q.** And the remaining binding at 10 µM (MST3)?
**A.** 61%

**Q.** And the remaining binding at 10 µM (TNIK)?
**A.** 71%

**Q.** And the remaining binding at 10 µM (PFTAIRE2)?
**A.** 93%

**Q.** What about the remaining binding at 10 µM (FGR) of the same molecule?
**A.** 100%

**Q.** And the remaining binding at 10 µM (NEK6)?
**A.** 100%

**Q.** What about the Antagonism (Y2; 10 uM) of the same molecule?
**A.** −0.6

**Q.** And the Agonism (Y2; 12.5 uM)?
**A.** 2.5

**Q.** And the remaining binding at 10 µM (PRKX)?
**A.** 98%

**Q.** And the remaining binding at 10 µM (CLK2)?
**A.** 61%

**Q.** And the remaining binding at 10 µM (PCTK2)?
**A.** 100%

**Q.** And the Antagonism (GnRH; 10 uM)?
**A.** −2.6

**Q.** And the Agonism (GnRH; 12.5 uM)?
**A.** 0.5

**Q.** And the remaining binding at 10 µM (DLK)?
**A.** 40%

**Q.** What about the Antagonism (A1; 10 uM) of the same molecule?
**A.** −13.9

**Q.** What about the Agonism (A1; 12.5 uM) of the same molecule?
**A.** 0.1

**Q.** What about the remaining binding at 10 µM [2] of the same molecule?
**A.** 77%

**Q.** What about the remaining binding at 10 µM (YSK4) of the same molecule?
**A.** 100%

**Q.** What about the remaining binding at 10 µM (EPHB1) of the same molecule?
**A.** 100%

**Q.** And the remaining binding at 10 µM (DCAMKL3)?
**A.** 100%

**Q.** What about the remaining binding at 10 µM (YES) of the same molecule?
**A.** 100%

**Q.** What about the Antagonism (FP; 10 uM) of the same molecule?
**A.** 8.9

**Q.** What about the Agonism (FP; 12.5 uM) of the same molecule?
**A.** 0.9
